# In patent US11883525B2, “Bioerodible polyester polymer axitinib ocular implants and related methods of use” (Dose Medical Corporation, priority 2019, dated 2024):
# Test system: persistent retinal vascular leakage
# Assay: DL-AAA model of persistent retinal vascular leakage, fluorescein angiography
# Type: in vivo, DB rabbits
# Details: 2-mg injection
substance,measurement,value
"Eylea® (aflibercept): commercial aflibercept product, macromolecular ligand for VEGF, used to validate the model",duration of effect on leakage,approximately two
